From ChEMBL document CHEMBL1123584, “Xanthine functionalized congeners as potent ligands at A2-adenosine receptors” (J Med Chem, 1987) come the findings set out here.

Molecules are shown by their SMILES.

Data set [1] addresses T1, Adenosine A2 receptor (Homo sapiens) (UniProt P29275+P29274). The experiment in a line: Antagonism of NECA-induced stimulation of adenylate cyclase activity in human platelet membranes at A2-adenosine receptor; value ranges from 75-370. It counts as functional, cell membranes.
The target of data set [2] is T2, Adenosine receptor A1 (Rattus norvegicus, UniProt P25099).
T2 sequence (P25099 whole entry): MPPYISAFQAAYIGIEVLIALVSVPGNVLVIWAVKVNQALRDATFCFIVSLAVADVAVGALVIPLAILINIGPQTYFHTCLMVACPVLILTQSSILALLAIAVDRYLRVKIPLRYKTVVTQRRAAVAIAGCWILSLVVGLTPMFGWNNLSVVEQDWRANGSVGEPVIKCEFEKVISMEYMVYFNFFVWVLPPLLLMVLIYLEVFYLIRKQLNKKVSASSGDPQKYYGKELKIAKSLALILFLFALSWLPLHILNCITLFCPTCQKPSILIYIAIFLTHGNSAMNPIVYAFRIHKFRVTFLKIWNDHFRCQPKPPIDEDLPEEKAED
Put plainly: Inhibition of [3H]- PIA binding at adenosine A1 receptor on rat cerebral cortex membranes. It counts as cell membranes, Membrane.

Data set [3] addresses T1, Adenosine A2 receptor (Homo sapiens). Put plainly: Antagonism of NECA-induced stimulation of adenylate cyclase activity in human platelet membranes at A2-adenosine receptor; value ranges from 100-540. The class given is functional, cell membranes.
For data set [4] the target is unchanged. The experiment in a line: Antagonism of NECA-induced stimulation of adenylate cyclase activity in human platelet membranes at A2-adenosine receptor; value ranges from 106-173. It counts as functional, cell membranes.
Data set [5] shares this target. Put plainly: Antagonism of NECA-induced stimulation of adenylate cyclase activity in human platelet membranes at A2-adenosine receptor. It counts as functional, cell membranes.
Data set [6] is described as follows: Partition coefficient (logP). It counts as physicochemical. Conditions: octanol/water.
For data set [7], the target named is T1, Adenosine A2 receptor (Homo sapiens). The experiment in a line: Antagonism of NECA-induced stimulation of adenylate cyclase activity in human platelet membranes at A2-adenosine receptor; value ranges from […]-[…]. The class given is functional, cell membranes.
The target is the same in data set [8]. Put plainly: Antagonism of NECA-induced stimulation of adenylate cyclase activity in human platelet membranes at A2-adenosine receptor; value ranges from 54-98. It counts as functional, cell membranes.
For data set [9] the target is unchanged. Put plainly: Antagonism of NECA-induced stimulation of adenylate cyclase activity in human platelet membranes at A2-adenosine receptor; value ranges from 15-51. The class given is functional, cell membranes.
For data set [10] the target is unchanged. Put plainly: Antagonism of NECA-induced stimulation of adenylate cyclase activity in human platelet membranes at A2-adenosine receptor; value ranges from 17-30. It counts as functional, cell membranes.
Data set [11] shares this target. Put plainly: Antagonism of NECA-induced stimulation of adenylate cyclase activity in human platelet membranes at A2-adenosine receptor; value ranges from 35-40. The class given is functional, cell membranes.
Data set [12] shares this target. The experiment in a line: Antagonism of NECA-induced stimulation of adenylate cyclase activity in human platelet membranes at A2-adenosine receptor; value ranges from 30-54. The class given is functional, cell membranes.

Consider `CCC(=O)OCOc1ccc(-c2nc3c(=O)n(CC)c(=O)n(CC)c3[nH]2)cc1`, for which the Kb (as a rule, the equilibrium dissociation constant of an antagonist, usually derived from a functional assay) in data set [1] came to 170 nM.
Turning to `CCCn1c(=O)c2[nH]c(-c3ccc(OCC(=O)NCCNC(=O)[C@@H](N)CCCCN)cc3)nc2n(CCC)c1=O`, the affinity in data set [2] corresponds to a Ki of 0.87 nM.
Take `CCn1c(=O)c2nc(-c3ccc(OCC(=O)NCCNC(=O)C(CCCCNC(=O)OCc4ccccc4)NC(=O)OC(C)(C)C)cc3)[nH]c2n(CC)c1=O` (stereo not drawn): in [3], the Kb amounted to 230 nM.
In [4], `CCCn1c(=O)c2nc(-c3ccc(OCOC(=O)CC)cc3)[nH]c2n(CCC)c1=O` returned a Kb of 135 nM.
The molecule `Cn1c(=O)c2nc(-c3ccccc3)[nH]c2n(C)c1=O` showed a Kb in data set [5] of 1900 nM.
As to `Cn1c(=O)c2nc(-c3ccc(OCC(=O)Nc4ccc(CC(=O)NCCN)cc4)cc3)[nH]c2n(C)c1=O`, the logP (usually the decadic logarithm of the partition coefficient of the neutral form, usually between octanol and water) in [6] was -0.05. The antagonist dissociation constant (Kb) in data set [7] amounted to 63 nM.
On to `CCn1c(=O)c2nc(-c3ccc(OCC(=O)Nc4ccc(CC(=O)OC)cc4)cc3)[nH]c2n(CC)c1=O`, for which the Kb in data set [7] came to 210 nM.
As for `CCn1c(=O)c2nc(-c3ccc(OCC(=O)OC(C)C)cc3)[nH]c2n(CC)c1=O`, in [8], the Kb amounted to 73 nM. In addition, the Ki (as a rule, a dissociation constant, usually derived from enzyme kinetics or from competition with a known ligand) in data set [2] was found to be 90 nM.
For `CCCn1c(=O)c2nc(-c3ccc(OCC(=O)OCC)cc3)[nH]c2n(CCC)c1=O`, in [2], the inhibition constant (Ki) was found to be 13 nM.
As for `Cn1c(=O)c2[nH]c(-c3ccc(OCC(=O)NCCN)cc3)nc2n(C)c1=O`, the logP in data set [6] was -0.63.
Take `CCOC(=O)COc1ccc(-c2nc3c(=O)n(CC)c(=O)n(CC)c3[nH]2)cc1`: in data set [2], affinity was put at a Ki of 140 nM.
Regarding `CCn1c(=O)c2[nH]c(-c3ccc(OCC(=O)NCCN)cc3)nc2n(CC)c1=O`, the logP in [6] is -0.06.
In the case of `CCn1c(=O)c2nc(-c3ccc(OCC(=O)NCCN)cc3)[nH]c2n(CC)c1=O`, the Kb in [7] worked out at 21 nM.
In the case of `CCCn1c(=O)c2[nH]c(-c3ccc(OCC(=O)NCCN)cc3)nc2n(CCC)c1=O` [XANTHINE AMINE CONGENER], the logP in [6] was determined as 0.81.
As for `CCn1c(=O)c2nc(-c3ccc(OCC(=O)Nc4ccc(CC(=O)NCCN)cc4)cc3)[nH]c2n(CC)c1=O`, in data set [9], the Kb worked out at 28 nM.
Molecule `CCn1c(=O)c2nc(-c3ccccc3)[nH]c2n(CC)c1=O` gave a Kb in data set [5] of 210 nM.
As for `CCn1c(=O)c2nc(-c3ccc(OCC(=O)NCCNC(=O)[C@@H](N)CCCCN)cc3)[nH]c2n(CC)c1=O`, the logP in data set [6] was -1.2. This molecule also yielded a Kb in data set [10] of 23 nM.
Turning to `CCn1c(=O)c2nc(-c3ccc(OCC(=O)Nc4ccc(C)cc4)cc3)[nH]c2n(CC)c1=O`, the antagonist dissociation constant (Kb) in data set [7] came to 100 nM.
`CCCn1c(=O)c2nc(-c3ccc(OCC(=O)NCCNC(=O)[C@@H](N)CCCCN)cc3)[nH]c2n(CCC)c1=O`: in data set [11], the Kb turned out to be 37 nM.
In [12], `Cn1c(=O)c2nc(-c3ccc(OCC(=O)NCCN)cc3)[nH]c2n(C)c1=O` yielded a Kb of 40 nM.
